# Test results taken from PMC11790949, “A multiplex method for rapidly identifying viral protease inhibitors” (Molecular Systems Biology, 2025).
# Where two headings read alike, the source gives them in different places.
# Experiments:
# [1] = target: Bat-CoV-HKU9-3CL (Bat coronavirus HKU9, UniProt P0C6W5); format: cell-based
# [2] = target: SARS-CoV-3CL (Severe acute respiratory syndrome coronavirus, UniProt P0C6X7); format: cell-based
# [3] = target: Bat-CoV-HKU4-3CL (Bat coronavirus HKU4, UniProt P0C6W3); format: cell-based
# [4] = target: MERS-CoV-3CL (Middle East respiratory syndrome-related coronavirus, UniProt K9N7C7); format: cell-based
# [5] = target: HCoV-NL63-3CL (Human coronavirus NL63, UniProt P0C6X5); format: cell-based
# [6] = target: HCoV-HKU1-3CL (Human coronavirus HKU1, UniProt P0C6X2); format: cell-based
# [7] = target: T1, SARS-CoV-2-3CL (Severe acute respiratory syndrome coronavirus 2, UniProt P0DTD1); assay: cell-based
# [8] = target: CV-B3-3C (Coxsackievirus B3, UniProt P03313); format: cell-based
# [9] = target: HAV-3C (Human hepatitis A virus genotype IB, UniProt P08617); format: cell-based
# [10] = target: HCoV-229E-3CL (Human coronavirus 229E, UniProt P0C6X1); format: cell-based
# [11] = system: BWCoV-SW1-3CL; format: cell-based, Beluga whale coronavirus SW1
# [12] = target: T1, SARS-CoV-2-3CL; format: cell-based
# [13] = system: Bat-SV-CoVZC45-3CL; format: cell-based, Bat SL-CoVZC45
# [14] = system: SARS-CoV-2; format: cell-based
# [15] = target: SARS-CoV-2 3CL protease (Severe acute respiratory syndrome coronavirus 2, UniProt P0DTD1); assay: Biochemical inhibition of peptide cleavage by purified SARS-CoV-2 3CL protease (fluorogenic)
# [16] = target: HIV-1-PR (Human immunodeficiency virus type 1 group M subtype B, UniProt P04585); format: cell-based
# [17] = target: HIV-2-PR (Human immunodeficiency virus type 2 subtype A, UniProt P04584); format: cell-based
# [18] = system: SV-A-3C; format: cell-based, Salivirus
# [19] = system: SARS-CoV-2; assay: microbe, parasite or virus in culture; format: cell-based; conditions: Severe acute respiratory syndrome coronavirus 2, 24 h, read-out: A549-C3 (ACE2/TMPRSS2) IC50, inhibition of SARS-CoV-2 viral replication
# [20] = target: T2, SARS-CoV-2 PLP (Severe acute respiratory syndrome coronavirus 2, UniProt P0DTD1); format: biochemical
# [21] = target: T2, SARS-CoV-2 PLP; assay: biochemical
# [22] = target: T3, SARS-CoV-PLP (Severe acute respiratory syndrome coronavirus, UniProt P0C6X7); assay: cell-based
# [23] = target: T4, Bat-SL-CoVZC45-PLP (Bat SARS-like coronavirus, UniProt A0A2R3SV02); format: cell-based
# [24] = system: SARS-CoV-2; assay: microbe, parasite or virus in culture; format: cell-based; conditions: Severe acute respiratory syndrome coronavirus 2, Huh-7, 24 h, read-out: IC50, inhibition of SARS-CoV-2 viral replication in Huh7 cells
# [25] = system: LGTV-NS2B-GS-NS3
# [26] = target: T4, Bat-SL-CoVZC45-PLP; format: cell-based; remark: listed apart in the source
# [27] = system: POWV-NS2B-GS-NS3; format: cell-based, tick-borne Powassan virus
# [28] = target: T3, SARS-CoV-PLP; format: cell-based
# [29] = target: MERS-CoV-PLP (Middle East respiratory syndrome-related coronavirus, UniProt K9N7C7); format: cell-based
# [30] = target: T2, SARS-CoV-2 PLP; format: cell-based
# [31] = target: T2, SARS-CoV-2 PLP; format: cell-based; remark: listed apart in the source
molecule,measurement,setting,value
CCc1cc(=O)oc2cc(OC(=O)c3ccco3)ccc12 [CB6728297],magratio,[1],0.9832
same,magratio,[2],1.394
same,magratio,[3],0.5386
same,magratio,[4],0.4038
same,magratio,[5],0.2557
same,magratio,[6],0.5819
same,EC50,[7],5.6 µM
same,magratio,[8],0.2591
same,magratio,[9],0.4338
same,magratio,[10],0.2941
same,magratio,[11],0.3619
same,magratio,[12],0.9863
same,magratio,[13],0.6214
O=C(Oc1ccc2ccc(=O)oc2c1)c1cccs1 [CB6762077],magratio,[1],0.9258
same,magratio,[2],0.6861
same,magratio,[3],0.7004
same,magratio,[5],0.351
same,magratio,[6],0.5727
same,EC50,[7],7.7 µM
same,magratio,[9],0.356
same,magratio,[10],0.2867
same,magratio,[11],0.4066
same,magratio,[12],0.436
same,magratio,[13],0.28
O=C(Oc1ccc2ccc(=O)oc2c1)c1ccco1 [CB6778425],magratio,[1],0.8169
same,magratio,[2],0.5878
same,activity within a live virus setting,[14],minimal activity
same,magratio,[3],0.5241
same,magratio,[4],0.8027
same,magratio,[5],0.4867
same,magratio,[6],0.7283
same,EC50,[7],0.782 µM
same,magratio,[9],0.5812
same,magratio,[10],0.4915
same,shift of IC50 upon pre-incubation with SARS-CoV-2 3CL,[15]; addition of substrate at 0 and 20 minutes,shifts to lower IC50s
same,IC50,"[15]; biochemical fluorogenic assay, read-out: IC50, purified SARS-CoV-2 3CL protease",0.062 µM
same,magratio,[11],0.6941
same,magratio,[12],0.6675
same,magratio,[13],0.8357
Cc1cccc(C)c1OCC(=O)N[C@@H](Cc1ccccc1)[C@@H](O)C[C@H](Cc1ccccc1)NC(=O)[C@H](C(C)C)N1CCCNC1=O [Lopinavir],magratio,[16],1.188
same,magratio,[17],0.9971
"O=C(Oc1cncc(Cl)c1)c1cccs1 [MAC-5576, reference compound]",magratio,[1],1.805
same,magratio,[2],2.282
same,magratio,[3],0.8566
same,magratio,[4],1.133
same,magratio,[5],1.688
same,magratio,[6],1.559
same,magratio,[9],0.7585
same,magratio,[10],1.36
same,magratio,[11],1.841
same,magratio,[18],1.579
same,magratio,[12],0.9818
same,magratio,[13],1.703
CNC(=O)Oc1c(OC)ccnc1C [MAVDA-B-116],IC50,[19],16.6 µM
same,trend in IC50 as a function of pre-incubation time with SARS-CoV-2 PLP,[20],downward trend in IC50
same,IC50,[21],18.1 µM
same,EC50,[22],0.4 to 1.7 µM
CCOc1ccnc(C)c1OC(=O)NC [MAVDA-B-190],IC50,[19],> 50 µM
same,trend in IC50 as a function of pre-incubation time with SARS-CoV-2 PLP,[20],downward trend in IC50
same,IC50,[21],14.2 µM
same,EC50,[22],0.4 to 1.7 µM
Cc1ccc(S)cc1.[Pb] [MAVDA-B-191],activity in the yeast assay for Bat SL-CoVZC45 PLP,[23],inactive
same,activity in the yeast assay for SARS-CoV PLP,[22],inactive
O=C(c1ccccc1)C(c1ccccc1)(c1ccccc1)c1ccccc1 [MAVDA-B-194],activity in the yeast assay for Bat SL-CoVZC45 PLP,[23],inactive
same,activity in the yeast assay for SARS-CoV PLP,[22],inactive
CNCC(N)=O.Cl [MAVDA-B-195],activity in the yeast assay for Bat SL-CoVZC45 PLP,[23],inactive
same,activity in the yeast assay for SARS-CoV PLP,[22],inactive
CNC(=O)Oc1c(OCc2ccccc2)ccnc1C [MAVDA-B-201],IC50,[19],41.2 µM
same,trend in IC50 as a function of pre-incubation time with SARS-CoV-2 PLP,[20],downward trend in IC50
same,IC50,[21],9.8 µM
same,EC50,[22],0.4 to 1.7 µM
CNC(=O)Oc1c(OC(C)C)ccnc1C [MAVDA-B-217],IC50,[19],49.8 µM
same,trend in IC50 as a function of pre-incubation time with SARS-CoV-2 PLP,[20],downward trend in IC50
same,IC50,[21],5.8 µM
same,EC50,[22],0.4 to 1.7 µM
CNC(=O)Oc1c(OCC2CCCCC2)ccnc1C [MAVDA-B-219],IC50,[24],16.3 µM
same,IC50,[19],14.9 µM
same,trend in IC50 as a function of pre-incubation time with SARS-CoV-2 PLP,[20],downward trend in IC50
same,IC50,[21],3.5 µM
same,EC50,[22],0.4 to 1.7 µM
CCOC(=O)C(=O)Cc1nc2ccccc2s1 [NSC38490],magratio,[4],0.2455
COc1cc(O)c(C(=O)/C=C/c2ccccc2)c(OC)c1 [NSC51351],magratio,[6],0.2725
same,magratio,[18],0.2675
CCSc1nc(=S)cc(C)[nH]1 [NSC67307],magratio,[4],0.2279
N#Cc1c(N)nc(N)nc1Nc1ccc(Br)cc1 [NSC71866],magratio,[25],0.2846
same,magratio,[18],0.2095
Cc1cc2c(cc1C)N(C(=O)CCl)CC(=O)N2 [NSC138389],magratio,[26],0.922
same,magratio,[25],0.3021
same,magratio,[3],0.217
same,magratio,[6],0.303
same,magratio,[27],0.5885
same,magratio,[28],0.5699
same,magratio,[11],0.6472
same,magratio,[12],0.2809
same,magratio,[13],0.2787
CN(C(=O)c1ccncc1)c1ccccc1 [NSC204976],magratio,[4],0.3045
S=c1[nH]c2ccccc2n2cccc12 [NSC246415],magratio,[3],0.2265
CCOC(=O)c1c(NC(=S)NC)sc2c1CCCC2 [NSC280492],magratio,[3],0.288
CNC(=O)Oc1c(C)[nH]ccc1=O [NSC287495],magratio,[26],0.8718
same,magratio,[29],0.4201
same,magratio,[30],0.3486
same,magratio,[28],0.9749
same,response of the SARS-CoV-2 PLP yeast model,[31],relatively weak response
same,EC50,[22],22.8 µM
N#CCS(=O)(=O)c1cccc[n+]1[O-] [NSC361056],magratio,[11],0.7101
NC(N)=NC(=S)Nc1ccc(Cl)cc1 [NSC403374],magratio,[2],0.3199
same,magratio,[12],0.7395
same,magratio,[13],0.2507
Cc1cc(N(C)C)ccc1N=Nc1ccc2ncccc2c1 [NSC680516],magratio,[29],0.228
GRL0617 [reference compound],response of the SARS-CoV-2 PLP yeast model,[31],blunted response
